Results on six molecules are retold here after ChEMBL document CHEMBL1777811, “Actin depolymerizing effect of trisoxazole-containing macrolides” (2011).

Assay [1] relates to Staphylococcus aureus. Description: Antibacterial activity against Staphylococcus aureus ATCC 6538p at 100 ug/ml after 24 hrs by twofold serial dilution method. The class given is functional, organism-based.
The test system of assay [2] is Trichophyton rubrum. Briefly: Antifungal activity against Trichophyton rubrum IFO 9185 after 48 to72 hrs by twofold serial dilution method. Type of assay: functional.
In assay [3] the test system is Candida albicans. Description: Antifungal activity against Candida albicans ATCC 10231 after 48 to72 hrs by twofold serial dilution method. Type of assay: functional.
The test system of assay [4] is Escherichia coli. Briefly: Antibacterial activity against Escherichia coli ATCC 25922 at 100 ug/ml after 24 hrs by twofold serial dilution method. Type of assay: functional, organism-based.
Assay [5] relates to Aspergillus fumigatus. Description: Antifungal activity against Aspergillus fumigatus HIC 6094 after 48 to72 hrs by twofold serial dilution method. The class given is functional.
In assay [6] the test system is Proteus vulgaris. Briefly: Antibacterial activity against Proteus vulgaris ATCC 3851 at 100 ug/ml after 24 hrs by twofold serial dilution method. The class given is functional, organism-based.
For assay [7], the system named is Staphylococcus aureus. Briefly: Antibacterial activity against Staphylococcus aureus IFO 12708 at 100 ug/ml after 24 hrs by twofold serial dilution method. Type of assay: functional, organism-based.
A short description of assay [8]: Induction of depolymerization of F-actin at 14 to 114 uM by fluorimetry relative to control.
Assay [9] concerns Trichophyton mentagrophytes. Description: Antifungal activity against Trichophyton mentagrophytes IFO 40996 after 48 to72 hrs by twofold serial dilution method. The class given is functional.
Assay [10] deals with Salmonella typhimurium. Description: Antibacterial activity against Salmonella Typhimurium ATCC 14028 at 100 ug/ml after 24 hrs by twofold serial dilution method. Type of assay: functional, organism-based. The note with it: Salmonella enterica subsp. enterica serovar Typhimurium.
Assay [11] has as its system Bacillus subtilis. Description: Antibacterial activity against Bacillus subtilis ATCC 6633 at 100 ug/ml after 24 hrs by twofold serial dilution method. Type of assay: functional, organism-based.
Assay [12] in a line: Induction of depolymerization of F-actin at 112 uM by fluorimetry relative to control.
A short description of assay [13]: Induction of depolymerization of F-actin at 7.28 uM by fluorimetry relative to control.
The nature of assay [14]: Induction of depolymerization of F-actin by fluorimetry.
Assay [15] is described as follows: Induction of depolymerization of F-actin at 15 to 120 uM by fluorimetry relative to control.
The nature of assay [16]: Induction of depolymerization of F-actin at 1.82 uM by fluorimetry relative to control.

The source made the active and inactive calls.

Take `COC(CC1OC(=O)CC(O)CC(O)CC(=O)C(C)C(OC)c2coc(n2)-c2coc(n2)-c2coc(n2)/C=C/CCC1C)C(C)CCC(=O)C(C)C(C/C=C/N(C)C=O)OC` (stereo unspecified) [JASPISAMIDE A]: the outcome in [1], in assay [4], in [6], in assay [7], in [8] and in assay [10] was inactive. Further, in assay [11], the result was inactive. The MIC in assay [2], in assay [3], in assay [5] and in assay [9] was > 100 µg/mL in each case.
Turning to `C[C@@H]1[C@H](O)[C@@H](C)/C=C/C=C/C=C/C=C/C=C/C=C/C=C/[C@H](O[C@@H]2O[C@H](C)[C@@H](O)[C@H](N)[C@@H]2O)C[C@@H]2O[C@](O)(C[C@@H](O)C[C@@H](O)[C@H](O)CC[C@@H](O)C[C@@H](O)CC(=O)O[C@H]1C)C[C@H](O)[C@H]2C(=O)O` [AMPHOTERICIN B], the minimal inhibitory concentration (MIC) (usually the smallest concentration in the dilution series that meets the test's criterion for growth inhibition) in assay [2] amounted to 0.84 µM; in [3], 0.22 µM; in assay [5], 0.84 µM; in assay [9] it was 0.84 µM.
As to `COC(=O)c1coc(/C=C/CCC(C)C(CC(OC)C(C)CCC(=O)C(C)C(C/C=C/N(C)C=O)OC)OC(=O)CC(O)C/C=C/C(=O)C(C)C(OC)c2coc(C(N)=O)n2)n1` (stereo unspecified) [HALISHIGAMIDE D], the outcome in assay [1], in assay [4], in [6], in assay [7], in assay [10] and in assay [11] was inactive. In addition, the MIC in [2], in assay [3], in assay [5] and in assay [9] was > 100 µg/mL in each case. This molecule came in with an Activity in assay [12] of 40%.
In the case of `COC(CC1OC(=O)CC(O)C/C=C/C(=O)C(C)C(OC)c2coc(n2)-c2coc(n2)-c2coc(n2)/C=C/CCC1C)C(C)CCC(=O)C(C)C(C/C=C/N(C)C=O)OC` (stereo unspecified) [HALICHONDRAMIDE], the outcome in [1], in assay [4], in assay [6], in [7], in assay [10] and in assay [11] was inactive. Also, the MIC in assay [2] worked out at 0.48 µM; in assay [3], 0.23 µM; in assay [5], 0.45 µM; in assay [9], 0.91 µM. The Activity in [13] was > 90%; in assay [14], “Dose-dependent effect”.
In the case of `COC(CC1OC(=O)CC(O)/C=C/CC(=O)C(C)C(OC)c2coc(n2)-c2coc(n2)-c2coc(n2)/C=C/CCC1C)C(C)CCC(=O)C(C)C(C/C=C/N(C)C=O)OC` (stereo unspecified) [NEOHALICHONDRAMIDE], the result in assay [1], in [4], in assay [6], in assay [7], in assay [15] and in assay [10] was inactive. For the same molecule, in assay [11], the result was inactive. The MIC in assay [2], in assay [3], in assay [5] and in assay [9] was > 100 µg/mL in each case.
As for `COC(CC1OC(=O)CC(O)C/C=C\C(=O)C(C)C(OC)c2coc(n2)-c2coc(n2)-c2coc(n2)/C=C\CCC1C)C(C)CCC(=O)C(C)C(C/C=C/N(C)C=O)OC` (stereo unspecified), the result in assay [1], in [4], in assay [6], in [7], in assay [10] and in assay [11] was inactive. The MIC in [2] came to 7.27 µM; in [3], 0.91 µM; in assay [5], 14.6 µM; in assay [9] it was 14.6 µM. Moreover, the figures for the Activity in [16] and in [14] were > 90% and “Dose-dependent effect”, respectively.
